Laboratory results as given in article PMC3653934, “Identification of Adiponectin Receptor Agonist Utilizing a Fluorescence Polarization Based High Throughput Assay” (PLoS ONE, 2013).
Read-outs that look alike come from different tables or passages of the source. Where a SMILES comes first, the peptide text is derived from it. [ ]: non-standard residue; d: D form. Nva = CCC[C@H](N)C(=O)O

T1: AdipoR2 (UniProt Q86V24)
T1 sequence (Q86V24 1-386): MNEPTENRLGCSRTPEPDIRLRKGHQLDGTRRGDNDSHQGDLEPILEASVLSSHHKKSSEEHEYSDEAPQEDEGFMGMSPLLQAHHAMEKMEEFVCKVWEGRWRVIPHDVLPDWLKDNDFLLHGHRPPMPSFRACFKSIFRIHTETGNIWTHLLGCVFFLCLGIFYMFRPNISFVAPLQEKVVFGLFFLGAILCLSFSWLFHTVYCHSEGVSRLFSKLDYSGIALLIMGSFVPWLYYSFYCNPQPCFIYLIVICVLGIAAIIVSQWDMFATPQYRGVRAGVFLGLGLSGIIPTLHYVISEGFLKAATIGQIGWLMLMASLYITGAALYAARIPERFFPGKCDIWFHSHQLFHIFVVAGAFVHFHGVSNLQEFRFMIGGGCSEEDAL

T2: AdipoR1 (Homo sapiens, UniProt Q96A54)
T2 construct: The cDNAs encoding full-length of AdipoR1 or AdipoR2 were then sub-cloned into the mammalian expression vector pBEX and pcDNA3.1–Myc-His(+); His (C); Myc (C); made in house; host or cells: CHO cells
T2 sequence (Q96A54 1-375): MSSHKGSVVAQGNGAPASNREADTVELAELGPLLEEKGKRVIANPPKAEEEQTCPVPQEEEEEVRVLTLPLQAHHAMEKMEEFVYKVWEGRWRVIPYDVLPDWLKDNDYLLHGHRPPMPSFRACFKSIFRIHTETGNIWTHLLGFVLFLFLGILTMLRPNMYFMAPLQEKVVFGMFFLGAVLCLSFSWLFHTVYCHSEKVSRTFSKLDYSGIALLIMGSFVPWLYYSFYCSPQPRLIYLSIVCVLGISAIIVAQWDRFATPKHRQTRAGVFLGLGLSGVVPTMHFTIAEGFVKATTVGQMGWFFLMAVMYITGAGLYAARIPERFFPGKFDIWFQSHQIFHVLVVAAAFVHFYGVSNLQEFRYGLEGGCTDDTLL

B1: g-Ad: recombinant carboxyl-terminal globular domain of adiponectin with C-terminal His-tag, produced in BL21(DE3) cells; positive control (protein)
chain: GEGAYVYRSAFSVGLETYVTIPNMPIRFTKIFYNQQNHYDGSTGKFHCNIPGLYYFAYHITVYMKDVKVSLFKKDKAMLFTYDQYQENNVDQASGSVLLHLEVGDQVWLQVYGEGERNGLYADNDNDSTFTGFLLYHDTN
modifications: C-terminal His-tag left out

How the values were obtained:
AdipoR2 = target: T1, AdipoR2; test: Competitive FP assay, displacement of probe 1 from AdipoR2; assay type: binding, human
Description: (§1) Unlabeled short peptide 3 was titrated against the FITC-labeled peptide and adiponectin receptor mixture. Plates were incubated at room temperature for up to 3 hours or 30 min at different temperatures. FP values were taken and IC50 values were calculated.
(§2) Master mixtures containing fluorescein-labeled probe 1 and adiponectin receptor (AdipoR1 or AdiopR2, 2 µM and probe 1 at 100 nM) in a reaction volume of 19 µl were prepared and loaded to plates. The library compounds (10 µM –0.078 µM, half dilutions) were prepared separately and transferred into the assay plates. The first and last columns of each plate were used as positive and negative control wells. Wells containing the drug only were used as controls to detect auto-fluorescence of the compounds in the total fluorescence assay. After subtraction of the background signal, data was processed and the IC50 values were determined by non-linear least square fitting using SigmaPlot 11.0.
(§3) Given that the present study is a screening study, peptide 3 was chosen as the positive control for cost-efficiency purposes.
(§4) To optimize the FP assay properly, it was necessary to assess the stability of the FP assay. The conditions for the FP assay were established by testing various parameters including incubation temperature, time, TF values, ΔmP values, and DMSO tolerance. […] In summary, the competitive FP binding assay conditions ideal for identifying adiponectin receptor agonists are: i) 2 µM adiponectin receptor, ii) 100 nM probe 1, iii) 5% final DMSO concentration (v/v), and iv) incubation for 30 min at 25°C before reading the plate.
(§5) A pilot screen against the natural product library of 10,000 compounds described above was performed at screening concentrations of 10 µM to 0.078 µM (half serial dilutions) in 5% DMSO (v/v). Controls present in each assay plate consisted of 5% DMSO (negative control) or peptide 3 (positive control).
(§6) We screened a library of 10,000 natural compounds for adiponectin agonists. […] 46 compounds that could generate IC50 curves were identified as initial hits.

AdipoR1 = target: T2, AdipoR1; test: Competitive FP assay, displacement of probe 1 from AdipoR1; assay type: binding
Description: as §1, §2, §3, §4, §5, §6

MCF-7 cells = test: Cell viability assay (CellTiter-Blue) in MCF-7 cells; assay type: cell-based; conditions: Homo sapiens, read-out: IC50 (µM) MCF-7 cells, cell viability
Description: (§7) All cell lines were obtained from the American Type Culture Collection (ATCC). MCF-7 and MDA-MB-231 cells were maintained in DMEM containing 10% fetal bovine serum and supplied with 1% penicillin/streptomycin. All cells were maintained in a 5% CO2 atmosphere at 37°C.
(§8) The effects of the lead compounds on cell proliferation were tested in MCF-7 and MDA-MB-231 cells. Cells were grown to 80% confluence, harvested and aliquoted into 384-well plates in a total volume of 45 µl per well. The outer wells were inoculated with sterile water to minimize evaporation from the sample wells. Cells were allowed to attach overnight and 5 µl culture media containing either vehicles or drug were added. Cell proliferation was evaluated using CellTilter-Blue reagent (Promega, China) according to manufacturer’s instructions after 72-h incubation. Fluorescence was measured with an excitation at 530 nm and emission at 590 nm. After background subtraction, cell viability values were normalized to vehicle controls and expressed as percentage of the mean of the relative vehicle controls.
(§9) To further confirm the agonistic activity of hit compounds, MDA-MB-231 and MCF-7 cells were treated with different concentrations of g-Ad or drug (20 µM to 1.2 nM) for 72 hours and cell viability was measured. Thus, four compounds (arctiin, (-)-arctigenin, matairesinol and gramine) that show agonistic activity against adiponectin receptor 1 and four compounds (deoxyschizandrin, taxifoliol, syringing and parthenolide) that show agonistic activity against adiponectin receptor 2 were identified.

MDA-MB-231 cells = test: Cell viability assay (CellTiter-Blue) in MDA-MB-231 cells; assay type: cell-based; conditions: Homo sapiens, read-out: IC50 (µM) MDA-MB-231 cells, cell viability
Description: as §7, §8, §9

[1] = system: AMPK phosphorylation (AdipoR1 signaling) in MDA-MB-231 cells; test: Western blot of AMPK phosphorylation in MDA-MB-231 cells; assay type: cell-based, human; conditions: MDA-MB-231 cells treated at IC50 concentration for 6 h
Description: (§10) Cells were grown to 80% confluence, harvested and aliquoted into 100 mm dishes in serum free media. Cells were allowed to attach overnight and then the serum free media was removed and then cells were washed in PBS twice. Different doses of compounds were prepared in the normal media and added to different dishes for an additional 6 h. Cells were washed 3 times with ice-cold PBS and cell lysates were prepared by scraping cells into lysis buffer A (RIPA buffer, 2 mM dithiothreitol […], 1×Halt protease inhibitor cocktail (Thermo scientific), and 1×Halt phosphatase inhibitor cocktail (Thermo scientific)). The cells were allowed to swell on ice (5 min), after which the homogenate was centrifuged. The supernatants were transferred to fresh tubes and protein concentrations were determined using the Bio-Rad protein assay (Bio-Rad Laboratories, Inc.) per manufacturer’s instructions. Aliquots of the cell lysates were stored at −80°C.
(§11) Equal amounts of total protein (50 µg) were subjected to electrophoresis (10% tris-HCl, 1.0 mm gels) and transferred to nitrocellulose membranes. Membranes were blocked in TBS containing 0.05% Tween 20 (TBST) and 5% nonfat milk or 5% BSA for 1 hour at room temperature. Appropriately diluted primary antibodies were incubated in TBST/5% nonfat milk or TBST/5% BSA for 2 h at room temperature or overnight at 4 °C. Membranes were washed in TBST three times for 15 min each. Appropriately diluted secondary antibodies were incubated in superblock blocking buffers (Thermo Scientific) for 1 h at room temperature. Membranes were washed in TBST three times for 15 min. Proteins were detected by Amersham™ ECL plus western blotting detection system (GE healthcare). The following antibodies were used: anti-AdipoR1 M18, anti-AdipoR2 C12 (Santa Cruz Biotechnology, Santa Cruz, CA), anti-p-AMPKα(T172), anti-AMPKα, and anti-β-actin (Cell Signaling, Danvers, MA).
(§12) It is well established that adiponectin activates AMPK and p38 MAPK through AdipoR1 or PPARα through AdipoR2 to mediate its downstream signaling cascades, [9], [12], [14]. […] The levels of phosphorylation of AMPK and phosphorylation of PPARα were examined and the relative expression levels of the phospho-protein to the total expression of protein levels were quantified using ImageJ software (NIH) ( Fig. 3 ).
(§13) Figure 3 Effects of hit compounds on adiponectin receptor signaling pathways. […] A total 50 µg of cell lysate was loaded to each lane. Western blot was performed follow the protocol in materials and methods section.

[2] = system: PPARα phosphorylation (AdipoR2 signaling) in MCF-7 cells; test: Western blot of PPARα phosphorylation in MCF-7 cells; assay type: cell-based, human; conditions: MCF-7 cells treated at IC50 concentration for 6 h
Description: as §10, §11, §12, §13

[3] = primary screen, 2 µM receptor, 100 nM probe 1, 30 min, 25°C, read-out: IC50 vs AdipoR2 (µM) Primary screen
[4] = validation, 2 µM receptor, 100 nM probe 1, 30 min, 25°C, read-out: IC50 vs AdipoR2 (µM) Validated
[5] = primary screen, 2 µM receptor, 100 nM probe 1, 30 min, 25°C, read-out: IC50 vs AdipoR1 (µM) Primary screen
[6] = validation, 2 µM receptor, 100 nM probe 1, 30 min, 25°C, read-out: IC50 vs AdipoR1 (µM) Validated

| Molecule | IC50 (AdipoR2; [3]) | IC50 (AdipoR2; [4]) | IC50 (AdipoR1; [5]) | IC50 (AdipoR1; [6]) | IC50 (MCF-7 cells; MCF7, 72 h) | IC50 (MDA-MB-231 cells; MDA-MB-231, 72 h) | Effect on AMPK phosphorylation [1] | Effect on PPARα phosphorylation level [2] | other results |
| --- | --- | --- | --- | --- | --- | --- | --- | --- | --- |
| COc1cc(C[C@H]2C(=O)OC[C@@H]2Cc2ccc(OC)c(OC)c2)ccc1O [Compound 2, (-)-Arctigenin] | > 5 µM | > 5 µM | 2.6 µM | 2.2 ± 0.8 µM | > 10 µM | 4.5 ± 0.4 µM | elevated | inhibited |  |
| COc1cc(/C=C/CO)cc(OC)c1O[C@@H]1O[C@H](CO)[C@@H](O)[C@H](O)[C@H]1O [Compound 5, Syringin] | 4.6 µM | 4.5 ± 0.5 µM |  |  | 6.8 ± 0.8 µM | > 10 µM | decreased | increased | IC50 (AdipoR1): > 5 µM; IC50 (AdipoR1; read-out: IC50 vs AdipoR1 (µM) Validated, validation, 2 µM receptor, 100 nM probe 1, 30 min, 25°C): > 5 µM |
| O=C1c2c(O)cc(O)cc2O[C@H](c2ccc(O)c(O)c2)[C@H]1O [Compound 6, Taxifoliol] |  |  |  |  |  |  | decreased | increased | IC50 (MCF-7 cells; MCF7, 72 h, 20 µM to 1.2 nM): 4.4 ± 0.5 µM; IC50 (MDA-MB-231 cells; MDA-MB-231, 72 h, 20 µM to 1.2 nM): > 10 µM |
| O=c1cc(-c2ccccc2)oc2cc(O)cc(O)c12 [Compound 8, Chrysin] |  |  | > 5 µM | > 5 µM |  |  |  |  | IC50 (AdipoR2; read-out: IC50 vs AdipoR2 (µM) Primary screen, primary screen, 2 µM receptor, 100 nM probe 1, 30 min, 25°C): 4.9 µM; IC50 (AdipoR2; read-out: IC50 vs AdipoR2 (µM) Validated, validation, 2 µM receptor, 100 nM probe 1, 30 min, 25°C): > 5 µM; IC50 vs AdipoR2 (µM) Validated (AdipoR2; validation, 2 µM receptor, 100 nM probe 1, 30 min, 25°C): failed in the validation |
| CCC[C@H](NC(=O)[C@@H]1CCCN1C(=O)[C@@H](NC(=O)[C@H](N)CC(N)=O)[C@@H](C)CC)C(=O)N[C@@H](CC(C)C)C(=O)N[C@@H](Cc1ccc(O)cc1)C(=O)N[C@H](CO)C(=O)N[C@@H](Cc1ccccc1)C(=O)N[C@@H](C)C(=O)N[C@H](CO)C(N)=O [Peptide 3, H-DAsn-Ile-Pro-Nva-Leu-Tyr-DSer-Phe-Ala-DSer-NH2, reference compound] (H-[dN]IP[Nva]LY[dS]FA[dS]-NH2) |  |  |  |  |  |  |  |  | IC50 (AdipoR2; positive control validation, titrated against probe 1 – AdipoR2 mixture, read-out: IC50 against AdipoR2, competition with probe 1): 2.46 ± 0.25 µM |
| B1 |  |  |  |  |  |  |  |  | IC50 (AdipoR1; positive control validation, titrated against probe 1 – AdipoR1 mixture, read-out: IC50 against AdipoR1, competition with probe 1): 3.4 ± 0.7 µM |
